Measured values reported in US20090197859A1 (Pfizer Inc., priority 2008, published 2009).

Tests used:
[1] = target: T1, cloned human 5-HT6 receptor (Homo sapiens, UniProt P50406); assay: 5-HT6 Receptor Binding Assay ([3H]-LSD radioligand, SPA); settings: read-out: 5HT6 % inh @ 1 uM
T1 construct: host or cells: HeLa cells, G-418 selection, membrane preparation
Procedure: 5-HT6 Receptor Binding Assay
Hela cells containing the cloned human 5-HT6 receptor were acquired from Dr. David R. Sibley's laboratory in National Institute of Health (see Sibley, D. R., J. Neurochemistry, 66, 47-56, 1996). Cells were grown in high glucose Dulbecco's modified Eagle's medium, supplemented with L-glutamine, 0.5% sodium pyruvate, 0.3% penicillin-streptomycin, 0.025% G-418 and 5% Gibco fetal bovine serum and then were harvested, when confluent, in cold phosphate buffered saline.
Harvested intact cells were washed once in cold phosphate-buffered saline. The cells were pelleted and resuspended in 100 ml of cold 50 mM Tris, 5 mM EDTA and 5 mM EGTA, pH 7.4. Homogenization was with a Vir Tishear generator, 4 cycles for 30 seconds each at setting 50. The homogenized cells were centrifuged at […] for 10 minutes and the supernatant was removed. The pellet was resuspended in 100 ml of the above buffer and rehomogenized for 2 cycles. The rehomogenized cells were then centrifuged at […] for 10 minutes and the supernatant was removed. The combined supernatant (200 ml) was centrifuged at 23,000 RPM (80,000×g) for 1 hour in a Beckman Rotor (42.1 Ti). The membrane pellet was resuspended in […] of assay buffer containing HEPES 20 mM, MgCl2 10 mM, NaCl 150 mM, EDTA 1 mM, pH 7.4 and stored frozen in aliqouts at −70° C.
The radioligand binding assay used [^3H]-lysergic acid diethylamide (LSD). The assay was carried out in Wallac 96-well sample plates by the addition of 11 μl of the test sample at the appropriate dilution (the assay employed 11 serial concentrations of samples run in duplicate), 11 μl of radioligand, and 178 μl of a washed mixture of WGA-coated SPA beads and membranes in binding buffer. The plates were shaken for about 5 minutes and then incubated at room temperature for 1 hour. The plates were then loaded into counting cassettes and counted in a Wallac MicroBeta Trilux scintillation counter.
Binding Constant Determination may be obtained by performing serial dilutions, e.g., eleven dilutions, of test compounds into assay plates using the PE/Cetus Pro/Pette pipetter. These dilutions are followed by radioligand and the bead-membrane mixture prepared as described above. After obtaining the specifically bound cpm, the data are fit to a one-site binding model using GraphPad Prism ver. 2.0. Estimated IC50 values are converted to Ki values using the Cheng-Prusoff equation (Cheng, Y. C. et al., Biochem. Pharmacol., 22, 3099-108, 1973).

T1 sequence (P50406 whole entry): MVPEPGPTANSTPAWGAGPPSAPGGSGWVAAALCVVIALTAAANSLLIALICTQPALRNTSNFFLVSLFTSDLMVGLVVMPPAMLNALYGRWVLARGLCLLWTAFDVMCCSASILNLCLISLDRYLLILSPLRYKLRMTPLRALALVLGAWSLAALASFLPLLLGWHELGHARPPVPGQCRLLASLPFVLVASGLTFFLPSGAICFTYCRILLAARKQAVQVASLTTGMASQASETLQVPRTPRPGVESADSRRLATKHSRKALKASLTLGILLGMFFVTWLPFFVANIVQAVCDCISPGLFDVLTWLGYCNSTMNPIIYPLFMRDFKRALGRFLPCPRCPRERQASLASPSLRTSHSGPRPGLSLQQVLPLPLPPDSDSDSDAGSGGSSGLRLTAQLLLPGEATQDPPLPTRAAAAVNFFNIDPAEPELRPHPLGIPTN

| inhibition at 1 µM [1] [%] | melting point [°C] | SMILES |
| --- | --- | --- |
| 94.2 | 122.7 to 123 | CN1CCN(c2cccc(C(=O)N3CCCC[C@@H]3c3cccc(F)c3)n2)CC1 [Example 55, [(R)-2-(3-Fluoro-phenyl)-piperidin-1-yl]-[6-(4-methyl-piperazin-1-yl)-pyridin-2-yl]-methanone] |
| 90.7 | 111.7 to 112.2 | CN1CCN(c2cccc(C(=O)N3CCCC[C@H]3c3ccccc3F)n2)CC1 [Example 56, [(S)-2-(2-Fluoro-phenyl)-piperidin-1-yl]-[6-(4-methyl-piperazin-1-yl)-pyridin-2-yl]-methanone] |
| 94 | 111.7 to 112 | CN1CCN(c2cccc(C(=O)N3CCCC[C@@H]3c3ccccc3F)n2)CC1 [Example 57, [(R)-2-(2-Fluoro-phenyl)-piperidin-1-yl]-[6-(4-methyl-piperazin-1-yl)-pyridin-2-yl]-methanone] |
| 88.9 | 118 to 119 | CN1CCN(c2cccc(C(=O)N3CCCC(c4ccccc4F)C3)n2)CC1 (centres unmarked) [Example 58, [3-(2-Fluoro-phenyl)-piperidin-1-yl]-[6-(4-methyl-piperazin-1-yl)-pyridin-2-yl]-methanone] |
| 76.2 | 108 to 110 | Cc1ccc(O[C@@H]2CCN(C(=O)c3cccc(N4CCCN(C)CC4)n3)C2)cc1 [Example 59, [6-(4-Methyl-[1,4]diazepan-1-yl)-pyridin-2-yl]-((R)-3-p-tolyloxy-pyrrolidin-1-yl)-methanone] |
| 86.7 | 142 to 143 | Cc1ccccc1[C@@H](C)N(C)C(=O)c1cccc(N2CCN(C)CC2)n1 [Example 61, 6-(4-Methyl-piperazin-1-yl)-pyridine-2-carboxylic acid methyl-((R)-1-o-tolyl-ethyl)-amide] |
| 70 | 188 to 188.7 | Cc1ccccc1[C@H]1CCCCN1C(=O)c1cccc(N2CCN(C)CC2)n1 [Example 62, [6-(4-Methyl-piperazin-1-yl)-pyridin-2-yl]-((R)-2-o-tolyl-piperidin-1-yl)-methanone] |
| 77.4 | 136.7 to 137.2 | Cc1ccccc1[C@@H]1CCCCN1C(=O)c1cccc(N2CCN(C)CC2)n1 [Example 63, [6-(4-Methyl-piperazin-1-yl)-pyridin-2-yl]-((S)-2-o-tolyl-piperidin-1-yl)-methanone] |
| 87.6 | 80 to 81 | CN1CCN(c2cccc(C(=O)N(C)Cc3ccccc3F)n2)CC1 [Example 64, 6-(4-Methyl-piperazin-1-yl)-pyridine-2-carboxylic acid (2-fluoro-benzyl)-methyl-amide] |
| 89.6 | 73 to 74 | CN1CCN(c2cccc(C(=O)N(C)Cc3ccccc3Cl)n2)CC1 [Example 65, 6-(4-Methyl-piperazin-1-yl)-pyridine-2-carboxylic acid (2-chloro-benzyl)-methyl-amide] |
| 82.1 | 143.3 to 144 | Cc1ccc([C@H]2CCCCN2C(=O)c2cccc(N3CCN(C)CC3)n2)cc1 [Example 66, [6-(4-Methyl-piperazin-1-yl)-pyridin-2-yl]-((R)-2-p-tolyl-piperidin-1-yl)-methanone] |
| 79.1 | 130.8 to 131.5 | CN1CCN(c2cccc(C(=O)N3CCCC[C@@H]3c3ccc(F)cc3)n2)CC1 [Example 67, [(R)-2-(4-Fluoro-phenyl)-piperidin-1-yl]-[6-(4-methyl-piperazin-1-yl)-pyridin-2-yl]-methanone] |
| 98.2 | 78 to 80 | Cc1cccc(O[C@H]2CCN(C(=O)c3cccc(N4CCCN(C)CC4)n3)C2)c1 [Example 68, [6-(4-Methyl-[1,4]diazepan-1-yl)-pyridin-2-yl]-((S)-3-m-tolyloxy-pyrrolidin-1-yl)-methanone] |
